Measured values from US11529363B2, “Methods of treating cancer in pediatric patients” (ARIAD Pharmaceuticals, Inc., priority 2018, dated 2022).

What was measured:
[1] = pediatric, 280 mg/m^2; cited from earlier work
ALK+ NSCLC = assay: phase 2 study AP26113-13-201 (ALTA trial) in adult patients with ALK+ NSCLC refractory to crizotinib; assay type: in vivo, human
Experimental: In the pivotal phase 2 study in adults with ALK+ NSCLC, 2 dose regimens were evaluated: (1) 90 mg QD; (2) 90 mg QD in Week 1 followed by escalation to 180 mg QD for those patients tolerating the 7-day 90 mg QD lead in. […] To mitigate the risk for EOPEs in pediatric patients, the doses of brigatinib selected for Week 1 of treatment are informed by adult clinical experience and designed to achieve systemic exposures not exceeding those at the 90 mg daily dose in adults.

[2] = test system: secondary ALK mutants of EML4-ALK; conditions: at relevant levels of exposure achieved in patients; cited from earlier work
ALK = ALK (Homo sapiens, UniProt Q9UM73); conditions: in vitro studies; cited from earlier work
Chain of ALK (Q9UM73 19-1620): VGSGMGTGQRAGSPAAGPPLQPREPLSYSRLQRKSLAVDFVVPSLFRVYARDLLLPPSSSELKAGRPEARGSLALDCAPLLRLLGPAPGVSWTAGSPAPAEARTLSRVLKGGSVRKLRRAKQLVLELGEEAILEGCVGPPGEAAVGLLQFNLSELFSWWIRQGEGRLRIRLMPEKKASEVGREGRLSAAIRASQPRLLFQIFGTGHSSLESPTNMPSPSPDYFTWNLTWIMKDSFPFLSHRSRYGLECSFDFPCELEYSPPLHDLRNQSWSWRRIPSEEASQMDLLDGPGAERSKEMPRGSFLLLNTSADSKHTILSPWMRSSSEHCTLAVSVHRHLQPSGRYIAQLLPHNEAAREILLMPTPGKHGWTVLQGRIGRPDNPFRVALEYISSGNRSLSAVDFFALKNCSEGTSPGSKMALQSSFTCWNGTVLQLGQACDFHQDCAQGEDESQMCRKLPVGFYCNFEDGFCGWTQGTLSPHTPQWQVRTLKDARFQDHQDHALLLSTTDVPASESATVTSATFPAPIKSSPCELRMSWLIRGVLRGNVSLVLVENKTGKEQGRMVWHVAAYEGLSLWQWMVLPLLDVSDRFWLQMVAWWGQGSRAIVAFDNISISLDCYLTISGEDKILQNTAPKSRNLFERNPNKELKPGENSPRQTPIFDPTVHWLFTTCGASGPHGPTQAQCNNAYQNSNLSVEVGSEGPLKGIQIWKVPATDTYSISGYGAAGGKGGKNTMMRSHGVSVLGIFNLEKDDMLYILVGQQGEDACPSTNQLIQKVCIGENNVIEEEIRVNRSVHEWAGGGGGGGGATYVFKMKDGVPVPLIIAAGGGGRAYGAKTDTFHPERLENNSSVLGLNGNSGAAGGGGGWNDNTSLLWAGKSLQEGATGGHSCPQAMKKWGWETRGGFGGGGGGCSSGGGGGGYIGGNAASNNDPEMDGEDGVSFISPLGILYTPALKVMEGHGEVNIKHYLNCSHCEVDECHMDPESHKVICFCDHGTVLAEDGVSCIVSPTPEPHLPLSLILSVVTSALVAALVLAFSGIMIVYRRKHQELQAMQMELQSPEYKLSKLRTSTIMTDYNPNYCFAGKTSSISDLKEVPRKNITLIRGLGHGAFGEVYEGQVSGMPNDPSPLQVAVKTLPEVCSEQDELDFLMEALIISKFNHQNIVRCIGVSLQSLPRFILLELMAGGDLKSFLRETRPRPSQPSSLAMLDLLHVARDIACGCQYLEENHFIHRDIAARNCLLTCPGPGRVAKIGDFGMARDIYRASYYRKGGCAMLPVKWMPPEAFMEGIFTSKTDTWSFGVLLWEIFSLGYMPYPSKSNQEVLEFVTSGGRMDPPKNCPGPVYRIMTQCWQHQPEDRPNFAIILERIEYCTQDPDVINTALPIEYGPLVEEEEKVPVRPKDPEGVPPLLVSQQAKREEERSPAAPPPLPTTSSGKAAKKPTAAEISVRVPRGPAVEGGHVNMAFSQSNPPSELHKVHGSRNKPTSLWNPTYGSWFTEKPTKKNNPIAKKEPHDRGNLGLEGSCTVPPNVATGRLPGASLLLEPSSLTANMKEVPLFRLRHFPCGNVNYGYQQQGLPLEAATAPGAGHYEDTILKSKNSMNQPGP

[3] = cross-study comparison of brigatinib exposure, oral solution (AP26113-13-104) vs tablet (AP26113-16-110); assay type: in vivo, human
[4] = first-in-human Study AP26113-11-101, tolerated dose in adults
Experimental: One additional dose level is planned if the 40 mg/m^2 QD→80 mg/m^2 QD dose is tolerated.

[5] = 90→180 mg QD, adult ALK+ NSCLC refractory to crizotinib

## C[C@@H](Oc1cc(-c2cnn(C3CCNCC3)c2)cnc1N)c1c(Cl)ccc(F)c1Cl [crizotinib]
[1]
  systemic exposure at MTD/RP2D higher than adult clinical exposures at 250 mg BID: ~50%

## COc1cc(N2CCC(N3CCN(C)CC3)CC2)ccc1Nc1ncc(Cl)c(Nc2ccccc2P(C)(C)=O)n1 [brigatinib, 5-chloro-N4-[2-(dimethylphosphoryl)phenyl]-N2-{2-methoxy-4-[4-(4-methylpiperazin-1-yl)piperidin-1-yl]phenyl}pyrimidine-2,4-diamine]
ALK+ NSCLC; [5]
  duration of response (DOR): 13.8 months
  investigator-assessed confirmed ORR: 55.5%
  progression-free survival (PFS): 15.6 months
ALK+ NSCLC; pivotal phase 2 study, adults with ALK+ NSCLC
  PFS at 180 mg QD versus 90 mg QD: longer PFS at 180 mg QD
[2]
  activity against 17 secondary ALK mutants of EML4-ALK: maintain substantial activity against all 17 secondary ALK mutants
ALK
  ALK inhibitor potency compared with crizotinib, ceritinib and alectinib: more potent ALK inhibitor than crizotinib, ceritinib, and alectinib
[3]; oral solution vs tablet, adults
  relative bioavailability of oral solution, AUC higher in reference to the tablet: approximately 42%
[3]; relative bioavailability factor
  oral solution/tablet AUC ratio: 1.42
[4]
  highest acceptably tolerated dose: 240 mg QD
